Measured values taken from article PMC8578629, “Photoactivated cell-killing amino-based flavylium compounds” (Scientific Reports, 2021).

Key:
[1] = MTT cytotoxicity assay, keratinocytes; assay type: cell-based; conditions: human, HaCaT cells (keratinocytes), dark
Procedure: The cytotoxicity of amino-based flavylium compounds to HFF-1 (ATCC Number: SCRC-1041) and HaCaT cells was evaluated using the standard MTT assay. Briefly, cells were seeded at a density of 8 × 10^5 and 4 × 10^4 cells/mL, respectively, in 96-well plate and incubated at 37 °C in a 5% CO2 atmosphere. Cells were allowed to grow for 24 h or until reaching monolayer confluency, and serially diluted compound solutions (6.3–100 µM) were added to the plate wells. The stock solutions of each compound were prepared at 200 mM in DMSO, the maximum % of DMSO in the cells was 0.05%. Then, cells were incubated for 48 h at 37 °C, after which the plate wells were washed once with phosphate buffered saline (PBS, Sigma-Aldrich), followed by addition of a 0.45 mg/mL MTT solution to each well. Crystals were allowed to form for 1.5 h. The reaction was stopped by rejecting the medium followed by the addition of 100 µL of DMSO (Sigma-Aldrich). The absorbance was read at 570 nm in FlexStation 3 Multi-Mode Microplate Reader (Molecular Devices, California, USA).

[2] = set-up: method as in doi:10.1016/j.cplett.2017.02.055; conditions: cited from earlier work

Question: What does the source list for `CCN(CC)c1ccc2ccc(/C=C/c3ccc(N(C)C)cc3)[o+]c2c1` [7NEt2st4′NMe2, 7-(diethylamino)-2-(4′-dimethylaminostyryl)-benzopyrylium]?
Answer: IC50 at 48 h ([1]; monolayer confluence): 91 ± 0.8 µM; IC50 at 48 h ([1]; proliferation): 35.42 ± 0.02 µM

Question: For `CCN(CC)c1ccc2ccc(-c3ccc(N)cc3)[o+]c2c1` [7NEt24′NH2, 4′-amino-7-diethylamino-benzopyrylium], which IC50 at 48 h ([1]; monolayer confluence) is on record?
Answer: The IC50 at 48 h was 29.8 ± 0.8 µM.

Question: And the IC50 at 48 h ([1]; proliferation)?
Answer: The IC50 at 48 h was 8.9 ± 0.2 µM.

Question: With `C=CC1=C(C)c2cc3[nH]c(cc4nc(cc5[nH]c(cc1n2)c(C)c5CCC(=O)O)C(CCC(=O)O)=C4C)c(C)c3C=C` [PpIX, protoporphyrin IX, reference compound] as the compound, how does the Fluorescence quantum yield [2] read?
Answer: The Fluorescence quantum yield was 8.5%.
